Experimental data: patent US8822463B2, “Methylcyclohexane derivatives and uses thereof” (Sk Biopharmaceuticals Co., Ltd., priority 2010, dated 2014)
Like-named read-outs stand apart in the source and are kept apart here.

Columns and labels:
[1] = test system: LPS-induced NO production in mouse microglia (BV2); assay: LPS-induced NO production inhibition test, mouse microglia (BV2); type: cell-based; conditions: BV-2, BV2 cells, 20 ng/ml LPS, 24 hours, Griess reagent
Procedure: (§1) Mouse monocytes (RAW) and mouse microglia (BV2) cells were cultured on a 96-well transparent plate (Nunc) in such a way that each of the wells contained 60,000 and 35,000 cells respectively. After 18 hours, when stabilized, the cells were treated with lipopolysaccharide (Sigma, USA, Cat No. L2630) in a morbid state derived from 20 ng/ml of Escherichia coli O111:B4 and 4 different concentrations (50 uM, 12.5 uM, 3.1 uM, and 0.8 uM) of the compounds synthesized according to Examples 1 to 55. Then, the cells were cultured for 24 hours, and a concentration of increased NO was measured. The NO concentration was determined by measuring absorption at a wavelength of 540 nm after a Griess reagent including 0.1% N-(1-naphthyl)ethylenediamine dihydrochloride, 1% sulfanilamide, and 2.5% phosphoric acid were added thereto.

[2] = test system: neuropathic pain (mechanical allodynia) in rats with caudal nerve damage; assay: Pain relief test using animal model (caudal nerve damage neuropathic pain, mechanical allodynia); type: in vivo; conditions: ip, rat, von Frey, reference concentration 30 mg/kg, read-out: Pain test results (% MPE, 50% tail withdrawal threshold)
Procedure: Male rats (Sprague-Dawley, 150-200 g, 6-week old, Orient Bio Co., Ltd) were purchased and acclimated in an animal chamber for one week. The animal chamber was alternately turned on and off at a time interval of 12 hours, at a temperature of 22 to 25° C., and in a relative humidity of 40-60%, and water and feed was supplied ad libitum to the rats.
The rats were placed in a round acryl container (5.5 15, 6.5 18 cm, which varied according to the size of body) and only the tails thereof were taken out of the container and placed on a plate. To confirm a pain behavior corresponding to a mechanical stimulus, an up-down method (J. Neurosci. Methods 53:55-63) was performed using a von Frey filament so as to measure “50% tail withdrawal threshold.
During all the steps before surgery, anesthesia was maintained with a mixed gas including 2-3% enflurane and 95% oxygen.
The compounds were each prepared as a solution form by using 5% DMSO, 5% Cremophore, and 90% distilled water on a volumetric basis. Each of the solutions was intraperitoneally administered in a volume of 3 ml per kg of a rat. The concentration of the compounds was controlled according to a compound and the concentration of reference was 30 mg/kg. […]
Anti-allodynic effects of the compounds were described as mean±SEM, and were compared each other by referring to “% MPE (the percentage of maximum possible effect),” and analyzed using one-way ANOVA and Bonferroni's t-test. […] [% MPE=(the threshold with respect to time after the drug treatment−the threshold at 0 hr)/(15−the threshold at 0 hr)×100]

[3] = test system: LPS-induced NO production in mouse monocytes (RAW); assay: LPS-induced NO production inhibition test, mouse monocytes (RAW); type: cell-based; conditions: Monocyte, RAW cells, 20 ng/ml LPS, 24 hours, Griess reagent
Procedure: as §1

[4] = at 1 hour after intraperitoneal administration
[5] = at 4 hours after intraperitoneal administration

Compound	IC50 [1]	IC50 [3]	inhibition in vivo [2, 4]	inhibition in vivo [2, 5]
O=C(NCc1ccncc1)OC1CCC(CNC(=O)N2CCCC2)CC1 (centres unmarked) [Example 54, pyridin-4-ylmethyl-carbamic acid 4-{[(pyrrolidine-1-carbonyl)-amino]-methyl}-cyclohexyl ester]	> 50 µM	48.7 µM	10.5%	–
O=C(NC1CCC(COC(=O)N2CCCC2)CC1)OCc1ccncc1 (centres unmarked) [Example 42, pyrrolidine-1-carboxylic acid 4-(pyridin-4-ylmethoxycarbonylamino)-cyclohexylmethyl ester]	> 50 µM	50 µM	–	57%
O=C(Nc1ccccn1)OC1CCC(COC(=O)N2CCCC2)CC1 (centres unmarked) [Example 21, pyrrolidine-1-carboxylic acid 4-(pyridin-2-ylcarbamoyloxy)-cyclohexylmethyl ester]	44.8 µM	15.9 µM	35.2%	–
Cc1cccc(CNC(=O)OC2CCC(COC(=O)N3CCCC3)CC2)n1 (centres unmarked) [Example 15, pyrrolidine-1-carboxylic acid 4-(6-methyl-pyridin-2-ylmethylcarbamoyloxy)-cyclohexylmethyl ester]	19.4 µM	19.9 µM	29.2%	–
O=C(Nc1ccnc(Cl)c1)OC1CCC(COC(=O)N2CCCC2)CC1 (centres unmarked) [Example 23, pyrrolidine-1-carboxylic acid 4-(2-chloro-pyridin-4-ylcarbamoyloxy)-cyclohexylmethyl ester]	> 50 µM	28.6 µM	–	18.7%
O=C(NC1CCC(COC(=O)N2CCCC2)CC1)OCc1ccccn1 (centres unmarked) [Example 40, pyrrolidine-1-carboxylic acid 4-(pyridin-2-ylmethoxycarbonylamino)-cyclohexylmethyl ester]	> 50 µM	> 50 µM	–	11%
O=C(Nc1ccncc1)OC1CCC(COC(=O)N2CCCC2)CC1 (centres unmarked) [Example 20, pyrrolidine-1-carboxylic acid 4-(pyridin-4-ylcarbamoyloxy)-cyclohexylmethyl ester]	37.9 µM	50 µM	–	22%
O=C(NC1CCC(COC(=O)N2CCCC2)CC1)OCc1cccnc1 (centres unmarked) [Example 41, pyrrolidine-1-carboxylic acid 4-(pyridin-3-ylmethoxycarbonylamino)-cyclohexylmethyl ester]	> 50 µM	50 µM	–	–

Continued, in another order:

IC50 [1]	IC50 [3]	Compound	inhibition in vivo [2, 4]	inhibition in vivo [2, 5]
18.3 µM	5.7 µM	O=C(NCc1cccnc1Cl)OC1CCC(COC(=O)N2CCCC2)CC1 (centres unmarked) [Example 18, pyrrolidine-1-carboxylic acid 4-(2-chloro-pyridin-3-ylmethylcarbamoyloxy)-cyclohexylmethyl ester]	22.5%	–
10.8 µM	27.9 µM	O=C(NCc1ccnc(Cl)c1)OC1CCC(COC(=O)N2CCCC2)CC1 (centres unmarked) [Example 16, pyrrolidine-1-carboxylic acid 4-(2-chloro-pyridin-4-ylmethylcarbamoyloxy)-cyclohexylmethyl ester]	–	16.4%
5.8 µM	> 50 µM	O=C(NCc1cccnc1)OC1CCC(COC(=O)N2CCCC2)CC1 (centres unmarked) [Example 8, pyrrolidine-1-carboxylic acid 4-(pyridin-3-ylmethylcarbamoyloxy)-cyclohexylmethyl ester]	11%	–
12.5 µM	29.5 µM	O=C(NCc1ccc(Cl)nc1)OC1CCC(COC(=O)N2CCCC2)CC1 (centres unmarked) [Example 17, pyrrolidine-1-carboxylic acid 4-(6-chloro-pyridin-3-ylmethylcarbamoyloxy)-cyclohexylmethyl ester]	5.8%	–
